According to patent US11939327B2, “Heterocyclic compounds” (Takeda Pharmaceutical Company Limited, priority 2017, dated 2024):

target: T1, human GluR1 flip (Homo sapiens, UniProt P42261); test: AMPA receptor function-enhancing activity using calcium influx as index (CHO-K1/GluR1 flip/stargazin-expressing cells); type: cell-based; details: CHO-K1, test compound 30 μM with 3 mM glutamic acid, 100% = 3 mM glutamic acid + 300 μM cyclothiazide, 0% = 3 mM glutamic acid alone, read-out: hGluR1 flip/30 μM (%)
T1 construct: expressed in transfected cells; host or cells: CHO-K1
T1 sequence (P42261 19-906 isoform P42261-2 limits assumed): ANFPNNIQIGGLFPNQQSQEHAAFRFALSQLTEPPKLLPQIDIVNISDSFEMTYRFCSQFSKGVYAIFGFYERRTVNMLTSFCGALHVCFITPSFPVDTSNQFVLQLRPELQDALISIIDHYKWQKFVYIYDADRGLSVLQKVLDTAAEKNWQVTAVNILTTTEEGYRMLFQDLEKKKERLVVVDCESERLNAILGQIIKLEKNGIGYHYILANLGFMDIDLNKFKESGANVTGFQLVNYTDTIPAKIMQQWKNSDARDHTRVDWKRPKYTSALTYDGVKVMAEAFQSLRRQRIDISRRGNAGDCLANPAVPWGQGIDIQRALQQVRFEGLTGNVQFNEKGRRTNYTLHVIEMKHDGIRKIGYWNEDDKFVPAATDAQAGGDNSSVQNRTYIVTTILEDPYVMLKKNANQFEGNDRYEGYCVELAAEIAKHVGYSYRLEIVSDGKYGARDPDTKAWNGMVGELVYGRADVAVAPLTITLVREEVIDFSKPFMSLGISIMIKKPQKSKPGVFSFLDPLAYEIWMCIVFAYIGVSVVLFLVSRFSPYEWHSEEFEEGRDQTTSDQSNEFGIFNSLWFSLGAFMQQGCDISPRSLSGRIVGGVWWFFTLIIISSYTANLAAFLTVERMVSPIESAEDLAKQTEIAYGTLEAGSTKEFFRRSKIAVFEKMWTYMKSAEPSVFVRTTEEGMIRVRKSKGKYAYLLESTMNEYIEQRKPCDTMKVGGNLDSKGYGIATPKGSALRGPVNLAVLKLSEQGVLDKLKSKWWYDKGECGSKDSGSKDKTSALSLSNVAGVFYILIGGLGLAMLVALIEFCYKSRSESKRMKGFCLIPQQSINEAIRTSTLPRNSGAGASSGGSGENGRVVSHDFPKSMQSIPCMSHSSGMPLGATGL
T1 sequence (Q9Y698 whole entry partner): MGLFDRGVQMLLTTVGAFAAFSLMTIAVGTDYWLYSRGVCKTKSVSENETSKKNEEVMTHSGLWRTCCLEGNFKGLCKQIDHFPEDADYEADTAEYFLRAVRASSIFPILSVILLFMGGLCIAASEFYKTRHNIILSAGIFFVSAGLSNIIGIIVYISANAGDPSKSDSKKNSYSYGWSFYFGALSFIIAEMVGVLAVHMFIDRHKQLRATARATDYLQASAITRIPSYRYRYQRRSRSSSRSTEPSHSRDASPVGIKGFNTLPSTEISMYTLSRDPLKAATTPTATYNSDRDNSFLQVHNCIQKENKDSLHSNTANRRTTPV
Excerpt: Experimental Example 1 Measurement method of AMPA receptor function-enhancing activity of compound using calcium influx as index
(1) Construction of Expression Gene
Human GluR1 flip cDNA was amplified by PCR method using forward primer […] (SEQ ID NO: 1) and reverse primer […] (SEQ ID NO: 2) artificially synthesized using human brain-derived cDNA (BD Bioscience) as a template. The amplified product was digested with restriction enzymes EcoRI, NotI (TAKARA SHUZO CO. LTD.) and incorporated into the same site of pcDNA3.1(+) (Invitrogen) to construct pcDNA3.1(+)/human GluR1 flip gene. Human stargazin cDNA was amplified by PCR method using forward primer […] (SEQ ID NO: 3) and reverse primer […] (SEQ ID NO: 4) artificially synthesized using human hippocampus cDNA as a template. The amplified product was digested with restriction enzymes XhoI, BamHI (TAKARA SHUZO CO. LTD.) and incorporated into the same site of pcDNA3.1(−) (Invitrogen) to construct pcDNA3.1 Zeo(−)/human stargazing gene.
(2) Construction of GluR1 Flip/Stargazin Expressing Cell
CHO-K1 cells passaged in a culture medium (Ham's F12 medium (Invitrogen) added with 10% inactivated fetal bovine serum (Morgate) and penicillin, streptomycin (Invitrogen)) were detached using 0.05% trypsin and 0.53 mM EDTA (Invitrogen) diluted with D-PBS(−). The detached cells were suspended in a culture medium, and recovered by centrifugation at 1,000 rpm. The recovered cells were re-suspended in D-PBS(−) and added into 0.4 cm electroporation cuvette (BioRad). pcDNA3.1(+)/human GluR1 flip gene (5 μg) and pcDNA3.1 Zeo(−)/human stargazin gene (15 μg) were added, and introduced into CHO-K1 cells under the conditions of 950 μFd, […] and using Gene Pulser II (BioRad). The introduced cells were cultured overnight in a culture medium. The next day, using a selection medium (culture medium added with zeocin (Invitrogen) at 250 μg/mL), the cells were plated in a 96 well plate at 250 cells/well. The clones showing drug resistance were selected, and GluR1 flip/stargazin expression clones were selected by an assay method shown below using calcium influx as an index.
(3) Measurement Method of AMPA Receptor Function-Enhancing Activity of Compound, Using Calcium Influx as an Index
CHO-K1/GluR1 flip/stargazin-expressing cells were plated on a 384 well black bottom transparent plate, and cultured for 2 days in a CO2 incubator (SANYO ELECTRIC Co. Ltd.) at 37° C. The medium of the cell plate was removed. A calcium indicator (Calcium5 Assay Kit, Molecular Devices) was diluted with an assay buffer (HBSS (Thermo Fisher Scientific), 0.1% BSA (Merck Millipoer) and 10 mM HEPES (Thermo Fisher Scientific)), and 1.25 mM probenecid (Dojindo Laboratories) was added thereto. The mixture prepared above was added at 30 μL/well (100 μL/well in case of 96 wells) to the well, and the well was left standing in 37° C., CO2 incubator for 1 hr. The cell plate was set in CellLux (PerkinElmer), a mixture (15 μL) (50 μL/well in case of 96 wells) of […] glutamic acid (final concentration 3 mM) diluted with an assay buffer and a test compound (test compound concentration 30 μM) was added thereto, and variation in the amount of fluorescence was measured for 3 min. The variation of fluorescence level of a well added with final concentration 3 mM of glutamic acid and 300 μM cyclothiazide (TOCRIS) was defined as 100%, the variation of fluorescence level of a well added with final concentration 3 mM of glutamic acid alone was defined as 0%, and the activity of the compound was calculated by the following formula. activity (%)=(X−C)/(T−C)×100 • T: variation of fluorescence level of well added with final concentration 3 mM of glutamic acid and 300 μM cyclothiazide • C: variation of fluorescence level of well added with final concentration 3 mM of glutamic acid alone • X: variation of fluorescence level of well added with test compound

activation at 30 µM | SMILES
68.4% | CCn1c(C(F)(F)F)nc2c(-c3ccc(C(=O)N4CCOCC4)cc3)nccc21 [Example 4, (4-(1-ethyl-2-(trifluoromethyl)-1H-imidazo[4,5-c]pyridin-4-yl)phenyl)(morpholin-4-yl)methanone]
83.3% | O=C(c1ccc(-c2cccc3c2nc(C(F)(F)F)n3CC(F)F)cc1)N1CCOCC1 [Example 7, (4-(1-(2,2-difluoroethyl)-2-(trifluoromethyl)-1H-benzimidazol-4-yl)phenyl)(morpholin-4-yl)methanone]
109% | CCn1c(C(F)(F)F)nc2c(-c3ccc(C(=O)N4CCOCC4)c(F)c3)nccc21 [Example 8, (4-(1-ethyl-2-(trifluoromethyl)-1H-imidazo[4,5-c]pyridin-4-yl)-2-fluorophenyl)(morpholin-4-yl)methanone]
110% | CCn1c(C(F)(F)F)nc2c(-c3ccc(C(=O)N4CCO[C@@H](C)C4)c(F)c3)nccc21 [Example 9, (4-(1-ethyl-2-(trifluoromethyl)-1H-imidazo[4,5-c]pyridin-4-yl)-2-fluorophenyl)((2S)-2-methylmorpholin-4-yl)methanone]
72% | O=C(c1ccc(-c2nccc3c2nc(C(F)(F)F)n3CC(F)F)cc1F)N1CCCOCC1 [Example 15, (4-(1-(2,2-difluoroethyl)-2-(trifluoromethyl)-1H-imidazo[4,5-c]pyridin-4-yl)-2-fluorophenyl)(1,4-oxazepan-4-yl)methanone]
95.1% | C[C@H]1CN(C(=O)c2ccc(-c3nccc4c3nc(C(F)(F)F)n4CC(F)F)cc2F)CCO1 [Example 17, (4-(1-(2,2-difluoroethyl)-2-(trifluoromethyl)-1H-imidazo[4,5-c]pyridin-4-yl)-2-fluorophenyl)((2S)-2-methylmorpholin-4-yl)methanone]
81% | CN(CCC#N)C(=O)c1ccc(-c2nccc3c2nc(C(F)(F)F)n3CC(F)F)cc1F [Example 19, N-(2-cyanoethyl)-4-(1-(2,2-difluoroethyl)-2-(trifluoromethyl)-1H-imidazo[4,5-c]pyridin-4-yl)-2-fluoro-N-methylbenzamide]
78.1% | O=C(c1ccc(-c2nccc3c2nc(C(F)(F)F)n3CC(F)F)cc1F)N1CCC1 [Example 24, azetidin-1-yl(4-(1-(2,2-difluoroethyl)-2-(trifluoromethyl)-1H-imidazo[4,5-c]pyridin-4-yl)-2-fluorophenyl)methanone]
79.3% | O=C(c1ccc(-c2nccc3c2nc(C(F)(F)F)n3CC(F)F)cc1F)N1CC(F)(F)C1 [Example 26, (3,3-difluoroazetidin-1-yl)(4-(1-(2,2-difluoroethyl)-2-(trifluoromethyl)-1H-imidazo[4,5-c]pyridin-4-yl)-2-fluorophenyl)methanone]
97.8% | CN(C(=O)c1ccc(-c2nccc3c2nc(C(F)(F)F)n3CC(F)F)cc1F)C1CCOCC1 [Example 28, 4-(1-(2,2-difluoroethyl)-2-(trifluoromethyl)-1H-imidazo[4,5-c]pyridin-4-yl)-2-fluoro-N-methyl-N-(tetrahydro-2H-pyran-4-yl)benzamide]
94.2% | O=C(c1ccc(-c2nccc3c2nc(C(F)(F)F)n3CC(F)F)cc1F)N1CCOCC(F)(F)C1 [Example 34, (4-(1-(2,2-difluoroethyl)-2-(trifluoromethyl)-1H-imidazo[4,5-c]pyridin-4-yl)-2-fluorophenyl)(6,6-difluoro-1,4-oxazepan-4-yl)methanone]
93.5% | O=C(c1ccc(-c2c(F)ccc3c2nc(C(F)(F)F)n3CC(F)F)cc1)N1CCOCC1 [Example 36, (4-(1-(2,2-difluoroethyl)-5-fluoro-2-(trifluoromethyl)-1H-benzimidazol-4-yl)phenyl)(morpholin-4-yl)methanone]

The next lines start with the compound.

SMILES | activation at 30 µM
CCn1c(C(F)(F)F)nc2c(-c3ccc(C(=O)N4CCOCC4)cc3)cccc21 [Example 2, (4-(1-ethyl-2-(trifluoromethyl)-1H-benzimidazol-4-yl)phenyl)(morpholin-4-yl)methanone] | 79.3%
C[C@H]1CN(C(=O)c2ccc(-c3cccc4c3nc(C(F)(F)F)n4C)cc2F)CCO1 [Example 11, (2-fluoro-4-(1-methyl-2-(trifluoromethyl)-1H-benzimidazol-4-yl)phenyl)((2S)-2-methylmorpholin-4-yl)methanone] | 80.3%
Cn1c(C(F)(F)F)nc2c(-c3ccc(C(=O)N4CCOCC4)c(F)c3)cccc21 [Example 12, (2-fluoro-4-(1-methyl-2-(trifluoromethyl)-1H-benzimidazol-4-yl)phenyl)(morpholin-4-yl)methanone] | 84.4%
C[C@H]1CN(C(=O)c2ccc(-c3cccc4c3nc(C(F)(F)F)n4CC(F)F)cc2)CCO1 [Example 13, (4-(1-(2,2-difluoroethyl)-2-(trifluoromethyl)-1H-benzimidazol-4-yl)phenyl)((2S)-2-methylmorpholin-4-yl)methanone] | 112%
O=C(c1ccc(-c2cccc3c2nc(C(F)(F)F)n3CC(F)F)cc1)N1CCCOCC1 [Example 14, (4-(1-(2,2-difluoroethyl)-2-(trifluoromethyl)-1H-benzimidazol-4-yl)phenyl)(1,4-oxazepan-4-yl)methanone] | 92.6%
O=C(c1ccc(-c2cccc3c2nc(C(F)(F)F)n3CC(F)F)cc1)N1CCOC(C(F)F)C1 (centres unmarked) [Example 16, (4-(1-(2,2-difluoroethyl)-2-(trifluoromethyl)-1H-benzimidazol-4-yl)phenyl)(2-(difluoromethyl)morpholin-4-yl)methanone] | 108%
CN(CCC#N)C(=O)c1ccc(-c2cccc3c2nc(C(F)(F)F)n3CC(F)F)cc1 [Example 21, N-(2-cyanoethyl)-4-(1-(2,2-difluoroethyl)-2-(trifluoromethyl)-1H-benzimidazol-4-yl)-N-methylbenzamide] | 93.7%
O=C(c1ccc(-c2cccc3c2nc(C(F)(F)F)n3CC(F)F)cc1)N1CCOCC(F)(F)C1 [Example 29, (4-(1-(2,2-difluoroethyl)-2-(trifluoromethyl)-1H-benzimidazol-4-yl)phenyl)(6,6-difluoro-1,4-oxazepan-4-yl)methanone] | 93%

same assay, conditions: test compound 30 μM with 3 mM glutamic acid, 100% = 3 mM glutamic acid + 300 μM cyclothiazide, 0% = 3 mM glutamic acid alone

hGluR1 flip/30 μM (%) | SMILES
105.5% | O=C(c1ccc(-c2cccc3c2nc(C(F)(F)F)n3CC(F)F)cc1)N1CCOC(C(F)F)C1 (centres unmarked) [Example 22, (4-(1-(2,2-difluoroethyl)-2-(trifluoromethyl)-1H-benzimidazol-4-yl)phenyl)(2-(difluoromethyl)morpholin-4-yl)methanone]
103% | O=C(c1ccc(-c2cccc3c2nc(C(F)(F)F)n3CC(F)F)cc1)N1CCOC(C(F)F)C1 (centres unmarked) [Example 23, (4-(1-(2,2-difluoroethyl)-2-(trifluoromethyl)-1H-benzimidazol-4-yl)phenyl)(2-(difluoromethyl)morpholin-4-yl)methanone]
92.6% | CN(CCC#N)C(=O)c1ccc(-c2nccc3c2nc(C(F)(F)F)n3CC(F)F)cc1F [Example 30, N-(2-cyanoethyl)-4-(1-(2,2-difluoroethyl)-2-(trifluoromethyl)-1H-imidazo[4,5-c]pyridin-4-yl)-2-fluoro-N-methylbenzamide]
